Experimental findings from article PMC10763615, “Identification and engineering of potent cyclic peptides with selective or promiscuous binding through biochemical profiling and bioinformatic data analysis” (RSC Chemical Biology, 2023) are described below.

Positions of bridges follow the written chain, without caps; N, C: chain ends. Residues, ends and D or L forms follow the SMILES beside them.

Common to all, as to format: binding
The target of assay [1] is T1, FGF-R3C ECD (Homo sapiens, UniProt P22607).
T1 sequence (P22607 23-375 limits assumed): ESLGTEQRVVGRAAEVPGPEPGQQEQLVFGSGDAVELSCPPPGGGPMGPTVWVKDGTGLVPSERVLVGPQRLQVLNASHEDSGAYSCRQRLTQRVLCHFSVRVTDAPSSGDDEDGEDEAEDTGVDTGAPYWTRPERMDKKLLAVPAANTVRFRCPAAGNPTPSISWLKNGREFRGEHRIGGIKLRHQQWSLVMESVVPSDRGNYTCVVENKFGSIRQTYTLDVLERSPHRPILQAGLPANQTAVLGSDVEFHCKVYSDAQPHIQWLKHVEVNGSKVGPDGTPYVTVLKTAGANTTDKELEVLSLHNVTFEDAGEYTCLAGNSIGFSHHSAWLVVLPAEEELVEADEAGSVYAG
The experiment in a line: biochemical. Further details: DNA constructs for the extracellular domain (ECD) of human FGF-; HPC4 (C); made in house; host or cells: HEK 293-6E. The method, then:
(§1) KD affinity binding measurements were obtained by biolayer interferometry (BLI) instruments (Fortebio Octet HTX, or Sartorius Octet RH16 using either 8 or 16 channel mode.
(§2) For single concentration binding experiments, 50 μM peptide stocks in folding buffer were diluted 1:50 in mRNA display selection buffer (PBS pH7.4 supplemented with 0.05% Tween-20 and 0.01% BSA) in either a 96 well black plate, or a 384 well tilted bottom microplate (ForteBio). Biotinylated FGF-R protein was loaded onto Streptavidin-functionalised biosensors (ForteBio) and immersed into ~1 μM peptide to obtain association kinetics curves. Dissociation kinetics curves were obtained by subsequent immersion of ligand-associated loaded sensors into a 1:50 dilution of folding buffer in mRNA display selection buffer. Fitted KD data was adjusted for concentration as determined by UPLC-CAD.
(§3) For accurate multi-concentration KD determination, dilution series of each peptide were made, and association and dissociation kinetics curves were obtained as above for each concentration to fit a multi-point KD binding model. Data collection and analysis was performed using the Octet Instrument Control […]
(§4) concentration assay kinetics curves shown in supplementary Figure S 19-24.

Assay [2] deals with T2, FGF-R1C ECD (Homo sapiens, UniProt P11362).
T2 sequence (P11362 22-376 limits assumed): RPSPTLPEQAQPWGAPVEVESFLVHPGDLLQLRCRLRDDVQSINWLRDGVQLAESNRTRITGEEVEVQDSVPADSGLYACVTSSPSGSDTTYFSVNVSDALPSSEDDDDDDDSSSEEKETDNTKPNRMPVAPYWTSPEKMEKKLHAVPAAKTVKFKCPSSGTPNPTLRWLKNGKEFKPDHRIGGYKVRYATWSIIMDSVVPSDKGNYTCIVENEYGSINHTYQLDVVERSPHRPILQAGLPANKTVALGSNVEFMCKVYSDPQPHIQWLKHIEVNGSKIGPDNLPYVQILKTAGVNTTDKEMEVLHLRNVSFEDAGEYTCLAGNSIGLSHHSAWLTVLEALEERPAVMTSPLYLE
The experiment in a line: biochemical. Further details: DNA constructs for the extracellular domain (ECD) of human FGF-; HPC4 (C); made in house; host or cells: HEK 293-6E. The method, then: as §1, §2, §3, §4

Assay [3] concerns the target T3, FGF-R4 ECD (Homo sapiens, UniProt P22455).
T3 construct: DNA constructs for the extracellular domain (ECD) of human FGF-; HPC4 (C); made in house; host or cells: HEK 293-6E
T3 sequence (P22455 22-369 limits assumed): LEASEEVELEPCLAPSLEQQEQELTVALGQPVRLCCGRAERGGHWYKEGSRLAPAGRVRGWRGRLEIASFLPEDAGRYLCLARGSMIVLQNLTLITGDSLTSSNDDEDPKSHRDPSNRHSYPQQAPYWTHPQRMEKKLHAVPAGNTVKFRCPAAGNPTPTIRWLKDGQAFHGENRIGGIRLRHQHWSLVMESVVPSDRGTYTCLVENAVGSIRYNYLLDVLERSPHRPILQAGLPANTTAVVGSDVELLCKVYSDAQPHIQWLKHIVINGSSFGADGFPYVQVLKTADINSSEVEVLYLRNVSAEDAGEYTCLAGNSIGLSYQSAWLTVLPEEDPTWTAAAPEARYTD
Put plainly: single concentration BLI of crude peptides. Conditions: crude T18 selection 1 (1:1:1) peptides, single concentration BLI (Table S4); read-out: KD (4). The method, then: as §1
as §2, with “UPLC-CAD. […]” for “UPLC-CAD.”

A word on the Kd: it is the constant that tells how readily two partners part at equilibrium. Turning to `CC[C@H](C)[C@@H]1NC(=O)[C@H](Cc2c[nH]c3ccccc23)NC(=O)[C@H](Cc2c[nH]c3ccccc23)NC(=O)[C@H](CCCNC(=N)N)NC(=O)[C@H](C)NC(=O)[C@H](Cc2ccc(O)cc2)NC(=O)[C@H](CCC(N)=O)NC(=O)[C@H](C)NC(=O)[C@H](CCCNC(=N)N)NC(=O)[C@H]([C@@H](C)CC)NC(=O)[C@H](CO)NC(=O)[C@H](CC(=O)O)NC(=O)[C@@H](NC(=O)[C@H](CCSC)NC(C)=O)CSSC[C@@H](C(=O)NCC(=O)N[C@@H](CO)C(=O)NCC(=O)N[C@@H](CO)C(=O)N[C@@H](CC(=O)O)C(=O)N[C@@H](Cc2ccc(O)cc2)C(=O)N[C@@H](CCCCN)C(=O)N[C@@H](CC(=O)O)C(=O)N[C@@H](CC(=O)O)C(=O)N[C@@H](CC(=O)O)C(=O)N[C@@H](CC(=O)O)C(=O)N[C@@H](CCCCN)C(N)=O)NC1=O` (Ac-MCDSIRAQYARWWICGSGSDYKDDDDK-NH2; disulfide 2-15), the Kd in assay [1] is > 10 µM; in assay [2], > 10 µM; in assay [3], 0.183 µM.
With `CC[C@H](C)[C@@H]1NC(=O)[C@H]([C@@H](C)O)NC(=O)[C@H](C(C)C)NC(=O)[C@H](Cc2ccc(O)cc2)NC(=O)[C@H](Cc2c[nH]c3ccccc23)NC(=O)[C@H](CC(=O)O)NC(=O)[C@@H](NC(=O)[C@H](CCSC)NC(C)=O)CSSC[C@@H](C(=O)NCC(=O)N[C@@H](CO)C(=O)NCC(=O)N[C@@H](CO)C(=O)N[C@@H](CC(=O)O)C(=O)N[C@@H](Cc2ccc(O)cc2)C(=O)N[C@@H](CCCCN)C(=O)N[C@@H](CC(=O)O)C(=O)N[C@@H](CC(=O)O)C(=O)N[C@@H](CC(=O)O)C(=O)N[C@@H](CC(=O)O)C(=O)N[C@@H](CCCCN)C(N)=O)NC(=O)[C@H](CCCCN)NC(=O)[C@H](CCCCN)NC(=O)[C@H](CC(C)C)NC(=O)[C@H](C(C)C)NC(=O)[C@H](CCCCN)NC(=O)[C@H](Cc2ccc(O)cc2)NC1=O` (Ac-MCDWYVTIYKVLKKCGSGSDYKDDDDK-NH2; disulfide 2-15), the Kd is > 10 µM in assay [1], > 10 µM in assay [2] and 0.008 µM in assay [3].
Regarding `CC[C@H](C)[C@@H]1NC(=O)[C@H](Cc2ccc(O)cc2)NC(=O)[C@H](Cc2ccc(O)cc2)NC(=O)[C@H](Cc2ccccc2)NC(=O)[C@H](CC(C)C)NC(=O)[C@H](CC(=O)O)NC(=O)[C@H](CCC(=O)O)NC(=O)[C@@H](NC(=O)[C@H](CCSC)NC(C)=O)CSSC[C@@H](C(=O)NCC(=O)N[C@@H](CO)C(=O)NCC(=O)N[C@@H](CO)C(=O)N[C@@H](CC(=O)O)C(=O)N[C@@H](Cc2ccc(O)cc2)C(=O)N[C@@H](CCCCN)C(=O)N[C@@H](CC(=O)O)C(=O)N[C@@H](CC(=O)O)C(=O)N[C@@H](CC(=O)O)C(=O)N[C@@H](CC(=O)O)C(=O)N[C@@H](CCCCN)C(N)=O)NC(=O)CNC(=O)[C@H](Cc2ccc(O)cc2)NC(=O)[C@H](CCCNC(=N)N)NC(=O)[C@H](CC(N)=O)NC(=O)[C@H]([C@@H](C)CC)NC1=O` (Ac-MCEDLFYYIINRYGCGSGSDYKDDDDK-NH2; disulfide 2-15), the Kd in assay [1] was > 10 µM; in assay [2], > 10 µM; in assay [3], 0.018 µM.
For `CSCC[C@H](NC(C)=O)C(=O)N[C@H]1CSSC[C@@H](C(=O)NCC(=O)N[C@@H](CO)C(=O)NCC(=O)N[C@@H](CO)C(=O)N[C@@H](CC(=O)O)C(=O)N[C@@H](Cc2ccc(O)cc2)C(=O)N[C@@H](CCCCN)C(=O)N[C@@H](CC(=O)O)C(=O)N[C@@H](CC(=O)O)C(=O)N[C@@H](CC(=O)O)C(=O)N[C@@H](CC(=O)O)C(=O)N[C@@H](CCCCN)C(N)=O)NC(=O)[C@H](Cc2c[nH]cn2)NC(=O)[C@H](Cc2c[nH]cn2)NC(=O)[C@H](Cc2ccccc2)NC(=O)[C@H](CC(C)C)NC(=O)[C@H](CC(C)C)NC(=O)[C@H](Cc2ccc(O)cc2)NC(=O)[C@H](Cc2ccc(O)cc2)NC(=O)[C@H](Cc2ccccc2)NC(=O)[C@H](CC(C)C)NC(=O)[C@H](CC(=O)O)NC(=O)[C@H](CCC(=O)O)NC1=O` (Ac-MCEDLFYYLLFHHCGSGSDYKDDDDK-NH2; disulfide 2-14), the Kd is > 10 µM in assay [1], 4.54 µM in assay [2] and 0.081 µM in assay [3].
`CSCC[C@H](NC(C)=O)C(=O)N[C@H]1CSSC[C@@H](C(=O)NCC(=O)N[C@@H](CO)C(=O)NCC(=O)N[C@@H](CO)C(=O)N[C@@H](CC(=O)O)C(=O)N[C@@H](Cc2ccc(O)cc2)C(=O)N[C@@H](CCCCN)C(=O)N[C@@H](CC(=O)O)C(=O)N[C@@H](CC(=O)O)C(=O)N[C@@H](CC(=O)O)C(=O)N[C@@H](CC(=O)O)C(=O)N[C@@H](CCCCN)C(N)=O)NC(=O)[C@H](CCC(N)=O)NC(=O)[C@H](CCCNC(=N)N)NC(=O)[C@H](CCCCN)NC(=O)[C@H](C(C)C)NC(=O)[C@H](CC(C)C)NC(=O)[C@H](CC(C)C)NC(=O)[C@H](Cc2ccc(O)cc2)NC(=O)[C@H](Cc2ccc(O)cc2)NC(=O)[C@H](Cc2ccccc2)NC(=O)[C@H](CC(C)C)NC(=O)[C@H](Cc2c[nH]cn2)NC(=O)[C@H](CCC(=O)O)NC1=O` (Ac-MCEHLFYYLLVKRQCGSGSDYKDDDDK-NH2; disulfide 2-15): the results for the Kd in assay [1], in assay [2] and in assay [3] were > 10 µM, > 10 µM and 0.001 µM, respectively.
On to `CSCC[C@H](NC(C)=O)C(=O)N[C@H]1CSSC[C@@H](C(=O)NCC(=O)N[C@@H](CO)C(=O)NCC(=O)N[C@@H](CO)C(=O)N[C@@H](CC(=O)O)C(=O)N[C@@H](Cc2ccc(O)cc2)C(=O)N[C@@H](CCCCN)C(=O)N[C@@H](CC(=O)O)C(=O)N[C@@H](CC(=O)O)C(=O)N[C@@H](CC(=O)O)C(=O)N[C@@H](CC(=O)O)C(=O)N[C@@H](CCCCN)C(N)=O)NC(=O)[C@H](CCC(N)=O)NC(=O)[C@H](CCC(=O)O)NC(=O)[C@H](Cc2c[nH]c3ccccc23)NC(=O)[C@H](Cc2c[nH]cn2)NC(=O)CNC(=O)[C@H](Cc2ccc(O)cc2)NC(=O)[C@@H]2CCCN2C(=O)[C@H](Cc2c[nH]cn2)NC(=O)[C@H](CCCNC(=N)N)NC(=O)[C@H](Cc2c[nH]cn2)NC(=O)[C@H](CCC(=O)O)NC1=O` (Ac-MCEHRHPYGHWEQCGSGSDYKDDDDK-NH2; disulfide 2-14), for which the Kd in assay [1], in assay [2] and in assay [3] was > 10 µM throughout.
